Data reported in patent publication US8470844B2, “Imidazoacridinone derivative compounds and methods for their use” (Technion Research & Development Foundation Limited, priority 2008, dated 2013).

Tests used:
[1] = test system: untransfected HEK293 cells; test: Flow cytometric accumulation in untransfected HEK293 cells; format: cell-based, Human; details: 1 μM IA, ±5 μM FTC
Protocol: For cytotoxicity and accumulation experiments, cells were grown in drug-free medium for at least one week prior to the experiments. Human embryonic kidney cells (HEK293) and their stable transfectants overexpressing the R482, G482 and T482 ABCG2 were grown in the above RPMI-1640 medium supplemented with 2 mg/ml G-418. Bram, E. E., et al., (2006) Cancer Chemother Pharmacol 58(6), 826-834.
IA derivative and tetramethylrosamine (TMR) accumulation in parental HEK293 and their HEK293/ABCG2 R/G/T482 transfectants were carried out as described herein with the a slight amendment of using a single IA concentration of 1 μM ±FTC (5 μM) for the selected as well as 0.1 μM for TMR accumulation. Robey, R. W., et al., (2003) Br J Cancer 89(10), 1971-1978. Cellular fluorescence was determined using a FACSCalibur (BD Bioscience, San Jose, Calif. USA) flow cytometer. FL1-H excitation of IAs was at 488 nm and emission was collected at 525 nm, whereas FL2-H excitation of TMR was at […] and emission was collected at 574 nm. Flow cytometric results are presented as means±SD of 3 independent experiments.
Bram, E. E., et al., (2006) Cancer Chemother Pharmacol 58(6), 826-834.

[2] = test system: A549/K1.5 cells; test: MTT cytotoxicity assay, ABCG2-overexpressing A549/K1.5 cells; format: cell-based, Human; details: for IC50: ABCG2-overexpressing A549/K1.5 cells, 96 hours exposure, MTT; for RF (resistance fold): IC50 of A549/K1.5 cells divided by IC50 of parental A549 cells
Protocol: (§1) Tissue culture: Human non-small cell lung cancer A549 cells and T-cell leukemia CCRF-CEM cells were grown under monolayer conditions or up to a maximal density of 10^6 cells/ml (for CCRF-CEM cells) in RPMI-1640 medium (GIBCO) supplemented with 10% fetal calf serum, 2 mM glutamine, 100 μg/ml penicillin and 100 μg/ml streptomycin (Biological Industries, Beth-Haemek, Israel) in a humid atmosphere of 5% CO2. Drug resistant A549/K1.5 cells with ABCG2 overexpression were maintained under a continuous drug selection with 1.5 μM C-1305. Bram, E. E., et al., (2007) Biochem Pharmacol 74(1), 41-53.
(§2) Cytotoxicity and growth inhibition assays: The cytotoxic activity of the various IA antitumor agents was determined using the MTT assay. Poindessous, V., et al., (2003) Clin Cancer Res 9(7), 2817-2825.
(§3) Exponentially growing cells were seeded at 5×10^3 cells/well in 24-well plates (2 ml medium/well). Following an overnight incubation, cells were exposed to different drug concentrations for 96 hours. Cellular viability was determined by adding the tetrazolium salt MTT for 4 h at 37° C., followed by solubilization of the intracellular precipitated formazan in 1 ml DMSO and absorbance was determined by a microplate reader (ASYS Hitech GmbH, Austria). Drug concentrations required to inhibit cell growth by 50% (IC50) compared with untreated controls were determined from the curves of survival versus drug concentrations using the SlideWrite software (Advanced Graphics Software, Inc., Encinitas, Calif.). Resistance folds (RF) were calculated by dividing the IC50 value of the resistant cells by that of the parental cell line. Values presented are means of at least three independent experiments, each performed in duplicates.
Quantitative evaluation of ABCG2 interaction with various IA derivatives: The extent of ABCG2-mediated resistance was expressed using the Resistance Fold (RF) parameter representing the ratio between the IC50 values of the resistant cells and parental cells. Likewise, ABCG2-dependent differential accumulation of IAs in ABCG2-overexpressing A549/K1.5 cells was compared using the ratio of IA accumulation in the presence or absence of the potent ABCG2 inhibitor FTC. This was termed the FTC-dependent Accumulation Fold (AF) and was determined for each IA at a constant IA concentration of 10 μM.

[3] = test system: A549 cells; test: MTT cytotoxicity assay, parental A549 cells; format: cell-based, Human; details: 96 hours exposure, mean of at least three experiments
Protocol: as §1, §2, §3

[4] = target: T1, ABCG2 (A549/K1.5 cells) (Homo sapiens, UniProt Q9UNQ0); test: Fluorescence microscopy of nuclear accumulation of IAs in A549/K1.5 cells; format: cell-based; details: 10 μM IA, 1 hr
T1 construct: Drug resistant A549/K1.5 cells with ABCG2 overexpression were maintained under a continuous drug selection with 1.5 μM C-1305; endogenous in cells; host or cells: A549/K1.5 (C-1305-selected subline of human non-small cell lung cancer A549)
T1 sequence (Q9UNQ0 1-655): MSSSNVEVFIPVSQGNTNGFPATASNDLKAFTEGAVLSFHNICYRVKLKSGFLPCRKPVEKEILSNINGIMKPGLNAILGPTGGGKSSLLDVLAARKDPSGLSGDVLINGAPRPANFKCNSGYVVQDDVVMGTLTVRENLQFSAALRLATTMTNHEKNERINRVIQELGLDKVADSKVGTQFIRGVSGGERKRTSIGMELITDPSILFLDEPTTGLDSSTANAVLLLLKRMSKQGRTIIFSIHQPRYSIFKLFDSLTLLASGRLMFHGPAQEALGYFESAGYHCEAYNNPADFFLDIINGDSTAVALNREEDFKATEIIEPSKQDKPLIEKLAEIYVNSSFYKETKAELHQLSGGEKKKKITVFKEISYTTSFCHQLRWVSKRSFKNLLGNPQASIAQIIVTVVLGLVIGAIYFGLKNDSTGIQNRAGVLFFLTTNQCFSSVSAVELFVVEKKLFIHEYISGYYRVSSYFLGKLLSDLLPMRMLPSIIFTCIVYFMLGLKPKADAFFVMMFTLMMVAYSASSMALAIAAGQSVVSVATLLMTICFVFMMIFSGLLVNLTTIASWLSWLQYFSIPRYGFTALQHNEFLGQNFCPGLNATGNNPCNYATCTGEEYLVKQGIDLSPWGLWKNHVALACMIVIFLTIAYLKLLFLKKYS
Protocol: In immunofluorescence microscopy of plasma membrane targeting of ABCG2 and nuclear accumulation of IAs, cells (1×10^4/well) were seeded in 24-well plates (1 ml medium/well) and incubated for 2 days, following which some wells were supplemented with 10 μM IA-containing medium±5 μM FTC and incubated for 1 h at 37° C. Cells were then washed twice with ice-cold PBS containing 0.1% BSA and blocked for 10 min at 4° C. with PBS containing 5% BSA. Cells were then washed once with ice-cold PBS containing 0.1% BSA and incubated for 30 min at 4° C. with a Phycoerythrin-conjugated, affinity-purified 5D3 mouse anti-human ABCG2 monoclonal antibody (1:100; eBioscience). Unspecific fluorescence was determined using cells that were incubated only with a secondary Phycoerythrin (PE)-conjugated goat anti-mouse IgG (1:200; Jackson Immunoresearch Labs, West Grove, Pa.). Cells were then washed twice and subjected to fluorescence microscopy using a DMIRE2 fluorescence microscope equipped with a DC300FX camera (Leica Microsystems, Wetzlar, Germany).
In order to exclude the possibility that differential subcellular accumulation of IA derivatives is the basis of the observed difference in cytotoxicity and cellular fluorescence, A549/K1.5 cells were incubated with 10 μM of selected IA derivatives from both group A and B in the presence or absence of FTC and subjected to fluorescence microscopy.

[5] = target: T1, ABCG2 (A549/K1.5 cells); test: Flow cytometric IA accumulation in A549/K1.5 cells with or without fumitremorgin C; format: cell-based
Protocol: In this assay, one ml aliquots of A549/K1.5 or CCRF-CEM cell suspensions (1×10^6 cells/ml) in growth medium containing 20 mM Hepes at pH 7.3 were distributed into 1.5 ml polypropylene Eppendorf test tubes. […] Rabindran, S. […] Alternatively, in time-course experiments, IA derivatives at a constant concentration of 10 μM were added to a CCRF-CEM cell suspension incubated at 37° C., and 1 ml aliquots were removed at variable time points up to 1 hour. Following incubation, test tubes were transferred to ice and centrifuged at 4° C. Cells were then washed twice and re-suspended in ice-cold PBS containing 1% fetal calf serum and kept in the dark at 4° C. until analysis. […] Quantitative evaluation of ABCG2 interaction with various IA derivatives: The extent of ABCG2-mediated resistance was expressed using the Resistance Fold (RF) parameter representing the ratio between the IC50 values of the resistant cells and parental cells.

## Cc1nc2ccc(NCCN(C)C)c3c(=O)c4cc(O)ccc4n1c23.Cl [C-1309]
[1]
  efflux (in words): not from untransfected HEK293 cells
[2]
  IC50: 3.22 ± 0.18 µM
  RF (resistance fold): 60.80
[2]; versus parental A549 cells
  resistance of A549/K1.5 cells: 61 fold
  resistance of A549/K1.5 cells (in words): prominent resistance
[3]
  IC50: 0.05 ± 0.007 µM

## CN(C)CCCCCNc1ccc2ncn3c4ccccc4c(=O)c1c23.Cl [C-1266]
[2]
  IC50: 0.56 ± 0.002 µM
  RF (resistance fold): 0.20
[2]; versus parental A549 cells
  hypersensitivity of A549/K1.5 cells: 5.0 fold
[4]; presence or absence of 5 μM FTC
  nuclear accumulation (fluorescence microscopy): comparable and significant nuclear accumulation regardless of ABCG2 inhibition by FTC
[3]
  IC50: 2.81 ± 0.27 µM

## CCCCN(CCCC)CCNc1ccc2nc(C)n3c4ccc(O)cc4c(=O)c1c23.Cl [C-1315]
[2]
  IC50: 3.46 ± 0.16 µM
  RF (resistance fold): 2.05
[3]
  IC50: 1.69 ± 0.26 µM
[5]
  ABCG2-mediated extrusion / interaction with ABCG2 (in words): failed to display any significant interaction with ABCG2

## CCN(CC)CCCCCCCCCNc1ccc2ncn3c4ccc(O)cc4c(=O)c1c23.Cl [C-2018]
[2]
  IC50: 2.13 ± 0.62 µM
  RF (resistance fold): 1.38
[3]
  IC50: 1.54 ± 0.31 µM
[5]
  ABCG2-mediated extrusion / interaction with ABCG2 (in words): failed to display any significant interaction with ABCG2

## CCN(CC)CCNc1ccc2nc(C)n3c4ccc(O)cc4c(=O)c1c23.Cl [C-1310]
[1]
  efflux (in words): not from untransfected HEK293 cells
[2]
  IC50: 1.22 ± 0.07 µM
  RF (resistance fold): 20.30
[2]; versus parental A549 cells
  resistance of A549/K1.5 cells (in words): prominent resistance
[4]; absence of FTC
  intracellular accumulation (fluorescence microscopy): no apparent intracellular accumulation
[4]; presence of 5 μM FTC
  nuclear accumulation (fluorescence microscopy): marked restoration of nuclear accumulation
[3]
  IC50: 0.06 ± 0.008 µM
